Source: ChEMBL document CHEMBL1157449, “Development of a novel fluorescent probe for fluorescence correlation spectroscopic detection of kinase inhibitors” (Bioorg Med Chem Lett, 2008)
pIC50, pKd: −log10 of the molar value.

What was measured:
[1] = target: T1, Mitogen-activated protein kinase kinase kinase 5 (Homo sapiens, UniProt Q99683); experiment: Inhibition of ASK1 by luciferase assay
T1 sequence (Q99683 whole entry): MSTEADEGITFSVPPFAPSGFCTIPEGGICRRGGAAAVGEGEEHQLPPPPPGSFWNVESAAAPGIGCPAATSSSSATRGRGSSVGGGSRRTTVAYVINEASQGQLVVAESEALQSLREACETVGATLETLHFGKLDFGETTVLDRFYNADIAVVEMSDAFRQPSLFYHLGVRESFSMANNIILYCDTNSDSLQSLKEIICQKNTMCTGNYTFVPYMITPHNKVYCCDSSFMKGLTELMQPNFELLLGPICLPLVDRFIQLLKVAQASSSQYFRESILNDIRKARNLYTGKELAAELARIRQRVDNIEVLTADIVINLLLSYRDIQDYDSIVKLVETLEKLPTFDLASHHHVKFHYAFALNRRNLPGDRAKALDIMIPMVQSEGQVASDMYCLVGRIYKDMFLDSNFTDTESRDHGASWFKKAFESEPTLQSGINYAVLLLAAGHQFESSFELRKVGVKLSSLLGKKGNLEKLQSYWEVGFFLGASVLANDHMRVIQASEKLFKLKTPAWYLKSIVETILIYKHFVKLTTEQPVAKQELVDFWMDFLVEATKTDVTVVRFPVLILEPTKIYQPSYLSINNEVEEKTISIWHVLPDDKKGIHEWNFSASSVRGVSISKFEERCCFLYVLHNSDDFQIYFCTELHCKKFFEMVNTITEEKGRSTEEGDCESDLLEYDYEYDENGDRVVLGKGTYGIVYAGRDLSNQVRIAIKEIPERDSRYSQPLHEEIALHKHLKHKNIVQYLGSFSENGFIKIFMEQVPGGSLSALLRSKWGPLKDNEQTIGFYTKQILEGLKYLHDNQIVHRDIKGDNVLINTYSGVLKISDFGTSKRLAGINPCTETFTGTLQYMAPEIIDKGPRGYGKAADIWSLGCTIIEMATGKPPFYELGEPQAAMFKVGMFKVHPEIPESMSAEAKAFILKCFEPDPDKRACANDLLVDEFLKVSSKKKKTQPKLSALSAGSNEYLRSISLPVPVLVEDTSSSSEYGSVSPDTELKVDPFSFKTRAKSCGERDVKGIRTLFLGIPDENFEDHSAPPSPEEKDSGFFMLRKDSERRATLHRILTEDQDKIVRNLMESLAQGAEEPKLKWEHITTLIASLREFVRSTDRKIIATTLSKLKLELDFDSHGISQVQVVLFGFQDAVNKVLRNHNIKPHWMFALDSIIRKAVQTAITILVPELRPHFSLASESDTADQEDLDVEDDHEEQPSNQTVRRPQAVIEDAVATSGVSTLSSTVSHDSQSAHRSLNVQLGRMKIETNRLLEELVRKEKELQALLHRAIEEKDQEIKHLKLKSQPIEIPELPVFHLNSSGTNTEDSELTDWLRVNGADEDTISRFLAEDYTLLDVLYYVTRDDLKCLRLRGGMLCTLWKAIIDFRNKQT

[2] = target: T1, Mitogen-activated protein kinase kinase kinase 5; experiment: Inhibition of ASK1 by fluorescence correlation spectroscopy
[3] = target: T1, Mitogen-activated protein kinase kinase kinase 5; experiment: Binding affinity to ASK1

Row | SMILES | pIC50 [1] | pIC50 [2] | pKd [3]
1 | Cn1cc(/C=C2\C(=O)Nc3ccccc32)c2ccccc21 | 4.08 | < 4.00 | 
2 | CO[C@@H]1[C@H](N(C)C(=O)COCCOCCNC(=O)c2ccc(-c3c4ccc(=[N+](C)C)cc-4oc4cc(N(C)C)ccc34)c(C(=O)O)c2)C[C@H]2O[C@]1(C)n1c3ccccc3c3c4c(c5c6ccccc6n2c5c31)C(=O)NC4 |  |  | 5.10
3 | NC1=NC(=O)/C(=C2\CCNC(=O)c3[nH]c(Br)cc32)N1 [HYMENIALDISINE] | 6.82 | 5.15 | 
